{
  "source": "patent US12245623B2",
  "about": "“Olive oil enriched with oleanolic acid, process for its preparation and use thereof” (CONSEJO SUPERIOR DE INVESTIGACIONES CIENTÍFICAS (CSIC), priority 2018, dated 2025)",
  "key": {"[1]": {"experiment": "Adverse effects in the PREDIABOLE Study (quarterly questioning and retrospective review of electronic medical records)", "type": "in vivo, human", "conditions": "indicated daily dose (55 mL oil, 36 mg OA/day), up to 30 months, humans", "source_text": "In each quarterly visit during the development of the trial, participants were questioned about the appearance of gastrointestinal disarrays or other kind of discomfort. On the other hand, a family physician not belonging to the study staff, and therefore being unaware of the allocation of the participants to the study groups, carried out a retrospective study using the electronic medical records.\nThey explored for each participant the period comprised between the inclusion in the trial up to two years after its completion, and focused on analytical values of serum creatinine levels (marker of renal function) and alanine and aspartate aminotransferase enzymes (as markers of hepatic alteration). Normal creatinine levels are established in 61.9 to 114.9 μM for men and 53 to 97.2 μM for women. A serum creatinine level 1.5-folds higher than the normal value (≈150 μM) was adopted as criteria of kidney function alteration.\nSince micro and macrovascular disorders are frequently associated to pathological complications of insulin resistance and diabetes, the electronic medical records were also explored for cerebral (transient ischemic stroke and ictus), cardiac (ischemic heart disease, chronic ischemia and effort angina) and peripheral (peripheral arterial disease) vascular diseases. In addition, any other significant adverse event suffered by participants were also took in consideration. […]"}, "[2]": {"experiment": "Fasting plasma OA levels in the PREDIABOLE Study (GC-MS)", "type": "in vivo, human", "conditions": "both study groups", "source_text": "At baseline and every six months afterwards, fasting blood samples were taken and analyzed for the serum glucose, insulin and HbA1c levels, as well as the lipid profile (triglycerides, total cholesterol, HDL-c and LDL-c). At each annual visit since the recruitment, participants were submitted to an OGTT. All these analytical determinations were made in the Laboratory of Analysis and Clinical Biochemistry of the ‘Virgen del Rocio’ University Hospital of Seville. In addition, aliquots of all the blood samples were sent to Instituto de la Grasa-CSIC to determine the plasma OA content. Laboratory technicians of both institutions were also blinded to the intervention groups.\nAdherence to the dietary intervention has been assessed through two indirect methods: the self-reported compliance Haynes-Sackett (Rodriguez-Chamorro M A et al. Review of therapeutic compliance measurement tests used in clinical practice. Atencion Primaria 2008, 40, 413-417) test and the delivering of the empty bottles presumably consumed. In addition, the OA plasma levels have been measured, as objective biomarker of compliance, in a random sample of the PREDIABOLE biobank (25 aliquots per study group, corresponding to 0, 12, 18 and 30 months of follow-up). […]"}, "[3]": {"conditions": "cited from earlier work"}, "[4]": {"conditions": "previous study, Rada et al. 2015; cited from earlier work"}},
  "data": [
    {"smiles": "CC1(C)CC[C@]2(C(=O)O)CC[C@]3(C)C(=CC[C@@H]4[C@@]5(C)CC[C@H](O)C(C)(C)[C@@H]5CC[C@]43C)[C@@H]2C1", "note": "[OA, 3b-hydroxy-olean-12-en-28-oic acid]", "values": [
      {"measurement": "safety of long-term administration", "setting": "[1]", "result": "safe for humans"},
      {"measurement": "fasting OA plasma concentration, average value", "setting": "[2]; at the onset of the study", "result": "ca. 160 ng/mL"},
      {"measurement": "concentration at 30 months", "setting": "[2]; human, in vivo, after 30 months of follow-up", "result": "~300", "unit": "ng/mL"},
      {"measurement": "solubility in aqueous media", "setting": "[3]", "result": "practically insoluble"},
      {"measurement": "solubility in lipophilic matrices", "setting": "[3]", "result": "partially soluble"},
      {"measurement": "mean residence time of OA in human blood after its ingestion", "setting": "[4]", "result": 8.9, "unit": "h"}
    ]}
  ]
}
